Results reported in BindingDB's records for doi:10.1016/s0960-894x(99)00197-3 (The R. W. Johnson Pharmaceutical Research Institute, 1999).
pEC50: −log10 of the molar value.

Experiments:
[1] = Activation of human platelet aggregation (gel-filtered platelets) induced by alpha thrombin
[2] = Inhibition of [3H]S-(p-F-Phe)-Har-L-Har-KY-NH2 binding to Thrombin receptor 1 (PAR-1) on membranes from CHRF cells

pEC50 [1] | pEC50 [2] | SMILES
5.41 |  | NCCCC[C@H](NC(=O)[C@H](CC1CCCCC1)NC(=O)c1nnc(N)[nH]1)C(=O)N[C@@H](Cc1ccccc1)C(N)=O [5-Amino-1H-[1,2,4]triazole-3-carboxylic acid {(S)-1-[(S)-5-amino-1-((S)-1-carbamoyl-2-phenyl-ethylcarbamoyl)-pentylcarbamoyl]-2-cyclohexyl-ethyl}-amide]
6.29 |  | N=C(N)NCCC[C@H](NC(=O)[C@H](CC1CCCCC1)NC(=O)c1cc(=O)c2ccccc2o1)C(=O)N[C@@H](Cc1ccccc1)C(N)=O [4-Oxo-4H-chromene-2-carboxylic acid {(S)-1-[(S)-1-((S)-1-carbamoyl-2-phenyl-ethylcarbamoyl)-4-guanidino-butylcarbamoyl]-2-cyclohexyl-ethyl}-amide]
4.68 |  | N=C(N)NCCC[C@H](NC(=O)[C@H](CC1CCCCC1)NC(=O)c1nnc(NC(=O)C=Cc2ccccc2)[nH]1)C(=O)N[C@@H](Cc1ccccc1)C(N)=O [5-[(E)-(3-Phenyl-acryloyl)amino]-1H-[1,2,4]triazole-3-carboxylic acid {(S)-1-[(S)-1-((S)-1-carbamoyl-2-phenyl-ethylcarbamoyl)-4-guanidino-butylcarbamoyl]-2-cyclohexyl-ethyl}-amide]
5.10 |  | N=C(N)NCCC[C@H](NC(=O)[C@H](CC1CCCCC1)NC(=O)c1nnc(NC(=O)C=Cc2ccc(F)cc2)[nH]1)C(=O)N[C@@H](Cc1ccccc1)C(N)=O [5-[(E)-3-(4-Fluoro-phenyl)-acryloylamino]-1H-[1,2,4]triazole-3-carboxylic acid {(S)-1-[(S)-1-((S)-1-carbamoyl-2-phenyl-ethylcarbamoyl)-4-guanidino-butylcarbamoyl]-2-cyclohexyl-ethyl}-amide]
5.51 |  | N=C(N)NCCC[C@H](NC(=O)[C@H](CC1CCCCC1)NC(=O)c1nnc(N)[nH]1)C(=O)N[C@H](C(N)=O)c1ccccc1 [5-Amino-1H-[1,2,4]triazole-3-carboxylic acid ((S)-1-{(S)-1-[((S)-carbamoyl-phenyl-methyl)-carbamoyl]-4-guanidino-butylcarbamoyl}-2-cyclohexyl-ethyl)-amide]
6.00 |  | N=C(N)NCCC[C@H](NC(=O)[C@H](Cc1ccccc1)NC(=O)c1nnc(N)[nH]1)C(=O)N[C@@H](Cc1ccccc1)C(N)=O [5-Amino-1H-[1,2,4]triazole-3-carboxylic acid {(S)-1-[(S)-1-((S)-1-carbamoyl-2-phenyl-ethylcarbamoyl)-4-guanidino-butylcarbamoyl]-2-phenyl-ethyl}-amide]
6.00 |  | N=C(N)NCCC[C@H](NC(=O)[C@H](CC1CCCCC1)NC(=O)c1nnc(NC(=O)C=Cc2cccc3ccccc23)[nH]1)C(=O)N[C@@H](Cc1ccccc1)C(N)=O [5-((E)-3-Naphthalen-1-yl-acryloylamino)-1H-[1,2,4]triazole-3-carboxylic acid {(S)-1-[(S)-1-((S)-1-carbamoyl-2-phenyl-ethylcarbamoyl)-4-guanidino-butylcarbamoyl]-2-cyclohexyl-ethyl}-amide]
 | 4.26 | N=C(N)NCCC[C@H](NC(=O)[C@H](CC1CCCCC1)NC(=O)c1nnc(NC(=O)C=Cc2ccc(Cl)cc2)[nH]1)C(=O)N[C@@H](Cc1ccccc1)C(N)=O [5-[(E)-3-(4-Chloro-phenyl)-acryloylamino]-1H-[1,2,4]triazole-3-carboxylic acid {(S)-1-[(S)-1-((S)-1-carbamoyl-2-phenyl-ethylcarbamoyl)-4-guanidino-butylcarbamoyl]-2-cyclohexyl-ethyl}-amide]
 | 4.90 | N=C(N)NCCC[C@H](NC(=O)[C@H](CC1CCCCC1)NC(=O)c1cc2ccccc2o1)C(=O)N[C@@H](Cc1ccccc1)C(N)=O [Benzofuran-2-carboxylic acid {(S)-1-[(S)-1-((S)-1-carbamoyl-2-phenyl-ethylcarbamoyl)-4-guanidino-butylcarbamoyl]-2-cyclohexyl-ethyl}-amide]
